According to publication PMC4198181, “Gold(I) Complexes of 9-Deazahypoxanthine as Selective Antitumor and Anti-Inflammatory Agents” (PLoS ONE, 2014):

Legend:
[1] = tested on: IL-1β secretion in LPS-stimulated macrophage-like THP-1 cells; assay: LPS-induced IL-1β secretion in THP-1 macrophages (ELISA); assay type: cell-based, human; conditions: 300 nM, 1 h pretreatment, 24 h after LPS
Procedure: (§1) For the determination of biological activity, we used the human monocytic leukaemia cell line THP-1 (ECACC, Salisbury, UK). The cells were cultivated at 37°C in the RPMI 1640 medium supplemented with 2 mM L-glutamine, 10% FBS, 100 U/mL of penicillin and 100 µg/mL of streptomycin in a humidified atmosphere containing 5% CO2. Stabilized cells (3rd–15th passage) were split into microtitration plates to get a concentration of 500 000 cells/mL and the differentiation to macrophages was induced by phorbol myristate acetate (PMA) dissolved in dimethyl sulfoxide (DMSO) at the final concentration of 50 ng/ml, and the cells were incubated for 24 h. In comparison with monocytes, differentiated macrophages tend to adhere to the bottoms of the cultivation plates. For next 24 h the cells were incubated with a fresh complete RPMI medium, i.e. containing antibiotics and FBS, without PMA. The medium was then aspirated, and the cells were washed with PBS and cultivated for next 24 hours in serum-free RPMI 1640 medium. These prepared macrophages were used for the detection of inflammatory response.
(§2) Differentiated macrophages were pretreated with 300 nM solutions of the tested complexes, HLn, AuCl, [AuCl(PPh3)], PPh3 and Auranofin dissolved in DMSO (the final DMSO concentration was 0.1%) and with 0.1% DMSO solution itself (vehicle) for 1 h; the given concentrations of the tested compounds lack the cytotoxic effect (cell viability >94%) based on the results of WST-1 test. The inflammatory response in pretreated macrophages was triggered by the addition of 1.0 µg/mL lipopolysaccharide (LPS) dissolved in water, while the control cells (CTRL) remained without the LPS treatment.
(§3) Macrophages, which were pretreated with the tested compounds (complexes 1–5, HLn, AuCl, [AuCl(PPh3)], PPh3 and Auranofin) for 1 h, were incubated with LPS for next 24 h. After this period, the medium was collected and the concentration of TNF-α, and IL-1β was determined by the Instant ELISA Kit according to the manufactures' manual.
(§4) The statistically significant differences between individual groups during anti- inflammatory testing were evaluated using a one-way ANOVA test for statistical analysis, followed by Tukey's post-hoc test for multiple comparisons. GraphPad Prism 5.02 (GraphPad Software Inc., San Diego, CA, USA) was used to perform the analysis. The results are presented as arithmetic means±S.E. values.

[2] = tested on: human cancer cell lines (MCF7, HOS, A549, G361, HeLa, A2780, A2780R, 22Rv1); assay: MTT in vitro cytotoxicity, summary over the panel of human cancer cell lines; assay type: cell-based; conditions: 24 h, MTT; HAuCl4 except on G361; read-out: IC50 against all the cancer cell lines tested (inactive up to the stated concentration)
Procedure: In vitro cytotoxic activity was determined by the MTT assay in human breast adenocarcinoma (MCF7; ECACC no. 86012803), human osteosarcoma (HOS; ECACC no. 87070202), lung carcinoma (A549; ECACC no. 86012804), malignant melanoma (G361; ECACC no. 88030401), cervix epitheloid carcinoma (HeLa; ECACC no. 93021013), ovarian carcinoma (A2780; ECACC no. 93112519), cisplatin-resistant ovarian carcinoma (A2780R; ECACC no. 93112517) and prostate carcinoma (22Rv1; ECACC no 105092802) cancer cell lines, purchased from European Collection of Cell Cultures (ECACC). The cells were cultured according to the ECACC instructions and they were maintained at 37°C and 5% CO2 in a humidified incubator. The primary culture of human hepatocytes (HEP220, batch number HEP220819) was obtained from Biopredic International (France). The culture medium was Williams and HAM's F-12 (1∶1) supplemented with penicillin, streptomycin, ascorbic acid, linoleic acid, holo-transferin, ethanolamine, glucagon, insulin, dexamethasone, pyruvate, glucose, glutamine, amphotericin. The medium was enriched for plating with 2% foetal calf serum (v/v). The medium was exchanged for a serum-free medium the day after and the culture was stabilized for additional 24 h. Thereafter, the cells were ready for treatments. The cultures were maintained at 37°C and 5% CO2 in a humidified incubator. The cells were treated with complexes 1–5 (at the concentration levels of 0.01, 0.1, 1.0, 5.0, 25.0, and 50.0 µM), starting compounds e.g. HL1–5, AuCl, and cisplatin (applied up to 50 µM) for 24 h, using multi-well culture plates of 96 wells. […]
The cytotoxicity data were expressed as the percentage of viability, where 100% represented the treatments with vehicle (0.1% DMF or 0.1% DMSO). […] The IC50 values were calculated from viability curves. […] The significance of the differences between the results was assessed by the ANOVA analysis with p<0.05 considered to be significant (QC Expert 3.2, Statistical software, TriloByte Ltd., Pardubice, Czech Republic).

[3] = tested on: TNF-α secretion in LPS-stimulated macrophage-like THP-1 cells; assay: LPS-induced TNF-α secretion in THP-1 macrophages (ELISA); assay type: cell-based, human; conditions: 300 nM, 1 h pretreatment, 24 h after LPS
Procedure: as §1, §2, §3, §4

[4] = tested on: TNF-α mRNA; assay: TNF-α gene expression by RT-qPCR in LPS-stimulated THP-1 macrophages; assay type: cell-based, human; conditions: 300 nM, 2 h after LPS, normalised to β-actin
Procedure: as §1
(§5) In the order to evaluate the expression of TNF-α, IL-1β, and β-actin mRNA, total RNA was isolated directly from the LPS-stimulated THP-1 cells. THP-1 macrophages were pretreated with compounds 2, 5, and Auranofin at the concentration of 300 nM or the vehicle (0.1% DMSO) only. After 1 h of the incubation, the inflammatory response was induced by LPS [except for the control cells (CTRL)]. After 2 h of the incubation with LPS, the medium was aspirated and the total RNA was isolated directly from the cells in cultivation plates using a RealTime Ready Cell Lysis Kit (Roche), according to the manufacturer's instructions.
(§6) The gene expression was quantified by two-step reverse-transcription quantitative (real-time) PCR (RT-qPCR). The reverse transcription step was performed by Transcriptor Universal cDNA Master using cell lysate as a template. […] The results were normalized to the amount of ROX reference dye, and the change in gene expression was determined by the 2^−ΔΔCT method. […]

[5] = tested on: IκB-α degradation (NF-κB signalling pathway); assay: LPS-induced IκB-α degradation (Western blot) in THP-1 macrophages; assay type: cell-based, human; conditions: 300 nM, 30 min after LPS
Procedure: Macrophage-like THP-1 cells were pretreated with the tested compounds and stimulated by LPS as was describe above. Thirty minutes after the addition of LPS, the medium was aspirated and cells were washed by cold phosphate buffer solution (PBS). Subsequently, the cells were collected using the lysis buffer [50 mM Tris-HCl pH 7.5, 1 mM EGTA, 1 mM EDTA, 1 mM sodium orthovanadate, 50 mM sodium fluoride, 5 mM sodium pyrophosphate, 270 mM sucrose, 0.1% (v/v) Triton X-100, and cOmplete Protease Inhibitor Cocktail (Roche, Germany)] and scraper. The lysis of cells was facilitated by a short (≈30 s) incubation in the ultrasonic water bath. The protein concentration was determined according to Bradford's method. For protein separation, 30 µg of protein was loaded onto the 12% polyacrylamide gel. […] The membranes were incubated with the primary anti-IκB-α antibody at the concentration ratio of 1∶500, or with the primary anti-β-actin at the concentration ration of 1∶5 000 at 4°C for 16 h. After washing, the secondary anti-mouse IgG antibody diluted 1∶2 000 was applied on the membranes and incubated at laboratory temperature (22°C) for 1 h. The amount of the bound secondary antibody was detected colorimetrically by an Opti-4CN Kit according to the manufacturer's manual.

[6] = tested on: THP-1 monocytic leukaemia cells; assay: WST-1 in vitro cytotoxicity, THP-1; assay type: cell-based, human; conditions: 24 h treatment, WST-1, 0.16–10.00 µM; read-out: IC50±S.E., THP-1
Procedure: Before the in vitro anti-inflammatory testing, in vitro cytotoxicity on human monocytic leukaemia cells (THP-1, ECACC no. 88081201) was determined using the WST-1 assay. The THP-1 cells (floating monocytes, 500 000 cells/mL) were incubated in 100 µL of the serum-free RPMI 1640 medium and seeded into 96-well plates in triplicate at 37°C. Measurements were taken 24 h after the treatment with the tested compounds dissolved in 0.1% DMSO in the concentration range of 0.16–10.00 µM. Viability was determined by the WST-1 test according to the manufacturer's manual. The amount of the formed formazan (which correlates to the number of metabolically active cells in the culture) was calculated as a percentage of the control cells, which were treated only with 0.1% DMSO and was set-up as 100%. The IC50 values of the tested compounds were calculated from the obtained data. The WST-1 assay was performed spectrophotometrically at 440 nm (FLUOstar Omega, BMG Labtech).
The cytotoxicity data were expressed as the percentage of viability, where 100% represented the treatments with vehicle (0.1% DMF or 0.1% DMSO). The cytotoxicity data from the cancer cell lines were acquired from three independent experiments (conducted in triplicate) using cells from different passages. The IC50 values were calculated from viability curves. The results are presented as arithmetic means±standard error of the mean (S.E.). The significance of the differences between the results was assessed by the ANOVA analysis with p<0.05 considered to be significant (QC Expert 3.2, Statistical software, TriloByte Ltd., Pardubice, Czech Republic).

[7] = tested on: IL-1β mRNA; assay: IL-1β gene expression by RT-qPCR in LPS-stimulated THP-1 macrophages; assay type: cell-based, human; conditions: 300 nM, 2 h after LPS, normalised to β-actin
Procedure: as §1, §5, §6

[8] = tested on: G361 malignant melanoma cells; assay: MTT in vitro cytotoxicity, G361; assay type: cell-based, human; conditions: 24 h treatment, read-out: IC50±S.E., G361
Procedure: In vitro cytotoxic activity was determined by the MTT assay in human breast adenocarcinoma (MCF7; ECACC no. 86012803), human osteosarcoma (HOS; ECACC no. 87070202), lung carcinoma (A549; ECACC no. 86012804), malignant melanoma (G361; ECACC no. 88030401), cervix epitheloid carcinoma (HeLa; ECACC no. 93021013), ovarian carcinoma (A2780; ECACC no. 93112519), cisplatin-resistant ovarian carcinoma (A2780R; […] ECACC no 105092802) cancer cell lines, purchased from European Collection of Cell Cultures (ECACC). […] The primary culture of human hepatocytes (HEP220, batch number HEP220819) was obtained from Biopredic International (France). The culture medium was Williams and HAM's F-12 (1∶1) supplemented with penicillin, streptomycin, ascorbic acid, linoleic acid, holo-transferin, ethanolamine, glucagon, insulin, dexamethasone, pyruvate, glucose, glutamine, amphotericin. The medium was enriched for plating with 2% foetal calf serum (v/v). The medium was exchanged for a serum-free medium the day after and the culture was stabilized for additional 24 h. Thereafter, the cells were ready for treatments. […] The MTT assay was performed spectrophotometrically at 540 nm (TECAN, Schoeller Instruments LLC). The cytotoxicity data were expressed as the percentage of viability, where 100% represented the treatments with vehicle (0.1% DMF or 0.1% DMSO). The cytotoxicity data from the cancer cell lines were acquired from three independent experiments (conducted in triplicate) using cells from different passages. The IC50 values were calculated from viability curves. The results are presented as arithmetic means±standard error of the mean (S.E.).

| SMILES | effect on LPS-induced IL-1β secretion [1] | IC50 [2] | effect on LPS-induced TNF-α secretion [3] | effect on TNF-α mRNA transcription [4] | effect on LPS-induced IκB degradation [5] | IC50 [6] | effect on IL-1β mRNA transcription [7] | IC50 [8] |
| --- | --- | --- | --- | --- | --- | --- | --- | --- |
| [Au+].[Cl-] [AuCl] | decreased the production of IL-1β by a manner comparable to free ligands | > 50 µM | none of the reference compounds, such as AuCl, HLn, [AuCl(PPh3)] and PPh3, exhibited any expected effect | – | – | – | – | – |
| CC[PH](CC)(CC)[Au][S][C@@H]1O[C@H](COC(C)=O)[C@@H](OC(C)=O)[C@H](OC(C)=O)[C@H]1OC(C)=O [Auranofin, triethylphosphine-(2,3,4,6-tetra-O-acetyl-β-D-thiopyranosato)gold(I), reference compound] | – | – | – | significantly reduce the transcription | block moderately the IκB degradation | 0.9 ± 0.1 µM | significantly reduce the transcription | – |
| [Cl][Au-]([Cl])([Cl])[Cl].[H+] [HAuCl4, reference compound] | – | > 50 µM | – | – | – | – | – | 38.1 ± 2.3 µM |
